Experimental data reported in patent US4849409A, “Diels-alder adduct from streptazoline and naphthoquinones and its oxidation products, which have cytotoxic and antimicrobial activity and which act against protozoa” (Hoechst Aktiengesellschaft, priority 1986, dated 1989).
Values after ≈ are worked out from the molar mass of the structure shown. Read-outs that look alike come from different tables or passages of the source.

What was measured:
L1210 leukemia cells = assay: cells; type: cell-based, mouse; conditions: for IC50: Mus musculus
Procedure: The cytotoxic action of the compounds can be established in various test systems such as, for example, in the soft agar colony test on mouse leukemia cells in vitro.
Formation of colonies of L1210 leukemia cells in soft agar:
In this test, substances having cytostatic activity bring about a reduction in the observed number of colonies compared with an untreated control. The details of the test procedure are as follows:
500 L1210 leukemia cells per plate are incubated with various concentrations of the compound of the formula II, obtained as in Example 3, as test substance at 37° C. for 1 hour. The cells are then washed twice with McCoy 5A medium and finally, after addition of 0.3% agar, poured into Petri dishes. Controls are incubated merely with fresh medium. In addition, in place of the incubation for 1 hour, various concentrations of the test substance are admixed to the upper agar layer, in order thus to acheive continuous exposure of the cells throughout the incubation time. After the agar has solidified, the plates are incubated in an incubator at 37° C. for 7 days (5% CO2, 95% relative humidity). The number of resultant colonies with a diameter >60μ is then counted. The results are expressed as the quotient of the number of colonies on treated agar plates and the number of colonies on the untreated control. The IC50 was obtained, as a measure of the activity of the test substance, from the dose-effect curve thus obtained. The comparison substance used in this test is the cytostatic adriamycin.

leukemia cells = conditions: cited from earlier work
[1] = in words; cited from earlier work
[2] = L1210, 168 h, continuous exposure, substance in upper agar layer, 7 days at 37° C., read-out: Stem cell assay cont. IC50
[3] = L1210, incubation for 1 hour at 37° C., then washed, 7 days in agar, read-out: Stem cell assay 1 h IC50

| IC50 (L1210 leukemia cells; [2]) | IC50 (L1210 leukemia cells; [3]) | Compound | cytotoxic action (leukemia cells) | antibiotic action [1] | cytotoxicity (assessment) (L1210 leukemia cells) |
| --- | --- | --- | --- | --- | --- |
| 0.02 µg/mL (≈ 0.0368 µM) | 0.04 µg/mL (≈ 0.0736 µM) | COc1cccc2c1C(=O)c1c(O)c3c(c(O)c1C2=O)C[C@@](O)(C(=O)CO)C[C@@H]3O[C@H]1C[C@H](N)[C@H](O)[C@H](C)O1 [Adriamycin] |  |  |  |
| 0.04 µg/mL (≈ 0.101 µM) | 0.26 µg/mL (≈ 0.658 µM) | CC1C2=C(C(=O)c3c(O)ccc(O)c3C2=O)[C@@H]2CCN3C(=O)O[C@@H]4[C@@H](O)C1=C2[C@@H]43 (stereo partly shown) [Test substance] |  |  | cytotoxicity comparable to that of adriamycin |

| Compound | IC50 (L1210 leukemia cells; [2]) | IC50 (L1210 leukemia cells; [3]) | cytotoxic action (leukemia cells) | antibiotic action [1] | cytotoxicity (assessment) (L1210 leukemia cells) |
| --- | --- | --- | --- | --- | --- |
| CC=C1C2=CCCN3C(=O)OC(C1O)C23 (stereo not shown) [Streptazoline] | 10 µg/mL (≈ 48.3 µM) | 10 µg/mL (≈ 48.3 µM) | no cytotoxic action | only a very weak antibiotic | no cytotoxicity worthy of note |
